Measured values taken from patent US20240252472A1, “COMBINATIONS FOR TREATING CANCER” (Purdue Pharma L.P., priority 2023, published 2024).

What was measured:
Type in all cases: cell-based, human
MICA mRNA = MICA mRNA by RT-qPCR in MM cell lines; details: four MM cell lines tested; 1 and 2.5 μM, 36 hours (MOLP-8 6 hours)
Procedure: Real time quantitative PCR (RT-qPCR) Total RNA was isolated using the RNeasy Mini Kit (Qiagen, Hilden, Germany). Following reverse transcription, PCR was performed using TaqMan Gene Expression Assays (Applied Biosystems, Foster City, CA, USA): CD38 (Hs01120071_m1), MICA (Hs00741286_m1), MICB (Hs00792952_m1) and GAPDH (Hs99999905_m1). The results were expressed as fold change relative to expression of the target gene in control cells, using endogenous expression of GAPDH for normalization.

CD38 [1] = assay: CD38 expression by western blot in MM cell lines
Procedure: Western Blot Analysis Cells were collected and centrifuged at 1200 rpm for 5 minutes at 4° C. Cells were washed with PBS and lysed in ice-cold lysis buffer [140 mmol/L NaCl, 10 mmol/L EDTA, 10% glycerol, 1% NP40, 20 mmol/L Tris (pH 7), 1 μMol/L pepstatin, 1 μg/mL aprotinin, 1 μg/mL leupeptin, 1 mmol/L sodium orthovanadate]. Samples were centrifuged at 10,000×g at 4° C. for 10 minutes, and supernatants were transferred to new tubes and western blots were performed following standard procedures. CD38 and anti-α-tubulin primary antibodies used in Western blot analyses were obtained from Cell Signaling (Boston, MA, USA). The horseradish peroxidase-conjugated secondary antibodies were from GE Healthcare (Chicago, IL, USA).

CD38 [2] = assay: CD38 expression on primary myeloma cells from patients ex vivo, flow cytometry; details: 2.5 μM, 48 hours; 3 out of 11 patients (low basal expression); not observed with high basal CD38
Procedure: For surface staining, cells were incubated with the appropriate antibodies and 7AAD (Immunostep) for 15 min in the dark. Data were acquired using a FACSCalibur cytometer (BD Biosciences) and analyzed using Infinicyt™ software (Cytognos). Specifically, the expression of CD38 or ligands for NK cell activating receptors (MICA, MICB, ULBP1-3, PVR and CD112) in MM cell lines was determined on the viable cell population (7AAD-). In primary myeloma cells, the expression of CD38 was analyzed over the viable myeloma population using the panel CD138-FITC/CD56-PE/7AAD/CD38-APC, whereas MICA/B-AF488/CD56-PE/7AAD/CD38-APC panel was used to determine MICA/B expression. Normalized median fluorescence intensity (MFI) was calculated by dividing median fluorescence obtained with the specific antibody by median fluorescence of the corresponding isotype control. MFI for each treatment was expressed as a percentage relative to the control (100%, cells cultured in media with DMSO).
CD38 expression was further examined by flow cytometry in malignant plasma cells from ex vivo cultures of 11 MM patients' bone marrow samples treated with tinostamustine (2.5 μM) for 48 hours.

MOLP-8 cells = assay: Daratumumab cross-linking mediated apoptosis after EDO-S101 pre-treatment; details: MOLP-8 pre-treated with EDO-S101 2.5 μM 48 h, daratumumab 1 μg/mL 24 h + F(ab)2; vs not pre-treated, p=0.0454
Procedure: ADCC, CDC and apoptosis via cross-linking To assess the effect of tinostamustine pre-treatment on cytotoxic mechanisms mediated by daratumumab, MM cell lines were first incubated in presence of tinostamustine (2.5 μM) or DMSO for 48 hours. Cells were then washed to remove tinostamustine or DMSO from the culture medium, and the corresponding cytotoxic assay (ADCC, CDC or apoptosis via cross-linking) was performed.
For the evaluation of ADCC, tinostamustine or DMSO pre-treated cells were cocultured with NK cells obtained from healthy donors in the presence of daratumumab (1 μg/ml) or the corresponding isotype control for 4 hours (ratio 1:1). […] In all three assays, the cytotoxic effect on MM cells was evaluated by flow cytometry with Annexin V/7AAD staining after treatment with daratumumab. […]
MM cells (MOLP-8 cells pre-treated with 0, 0.1, 0.5, 1 or 2.5 μM EDO-S101 for 48 hours in accordance with the methods outlined above) were incubated for 24 hours in the presence of 1 μg/mL daratumumab or the corresponding isotype control, along with 10 μg/mL F(ab)2 fragments for cross-linking. Apoptosis was evaluated by flow cytometry in accordance with the methods outlined above, using AnnexinV/7AAD staining. The effect of EDO-S101 on the crosslinking-mediated apoptosis induced by daratumumab was assessed using the following formula: […]

CD38 [3] = assay: CD38 expression by immunofluorescence in MM cell lines; details: RPMI-8226, MOLP-8; 2.5 μM; relative to DMSO control
Procedure: Immunofluorescence After appropriate treatments in vitro, cells were placed on glass slides coated with poly-L-lysine followed by 15 minutes incubation in a cell culture incubator. Cells were fixed with 4% paraformaldehyde for 30 minutes, blocked with BSA 100 μg/mL for 1 h at room temperature and incubated with a primary antibody (anti-CD38 antibody (1:100)) overnight at 4° C. The incubation with the anti-mouse secondary antibody, labelled with Alexa Fluor 488, was performed in darkness for 1 h at room temperature. After three washes for 5 min in PBS, nuclei were stained with DAPI (Sigma) 1:1000 in PBS for 5 min at room temperature. Finally, cells were washed three times for 10 min in PBS and slides were then mounted using VECTASHIELD Mounting Medium (Vector Laboratories, Burlingame, CA). Fluorescent images were acquired with a LEICA SP5 DMI-6000B confocal microscope (Leica, Wetzlar, Germany) with a 63.0× lens zoomed in 6×.

Cn1c(CCCCCCC(=O)NO)nc2cc(N(CCCl)CCCl)ccc21 [EDO-S101, 7-(5-(bis(2-chloroethyl)amino)-1-methyl-1H-benzo[d]imidazol-2-yl)-N-hydroxyheptanamide]
expression of MICA at the mRNA level (MICA mRNA): increased | CD38 expression, western blot (CD38 [1]; MM1.S, JJN3, RPMI-8226, 1 and 2.5 μM): increased | increase in CD38 by Western blot and RT-qPCR (CD38 [1]; MOLP-8 cells): not observed | CD38 expression in primary myeloma cells (CD38 [2]): slightly increased | daratumumab-mediated apoptosis via cross-linking (MOLP-8 cells): higher | CD38 expression, immunofluorescence (CD38 [3]): increased
